Experimental data published in publication PMC6858373 (Scientific Reports, 2019).
Like-named read-outs stand apart in the source and are kept apart here.

Key:
in vitro = conditions: human
[1] = target: full-length P. pyralis luciferase (Photinus pyralis, UniProt P08659, K549A/L550V/N119G/N50D/S548I); assay type: cell-based
Clone V cells = conditions: human
[2] = target: T1, FGF14:Nav1.6 C-tail complex (Homo sapiens, UniProt Q92915+Q9UQD0); test: Split-luciferase complementation assay (LCA) in Clone V double stable HEK293 cells; assay type: cell-based; conditions: for Split Luciferase Assay Z-score Set 1 / Split Luciferase Assay Z-score Set 2: normalized to on-plate 0.3% DMSO controls; for Z-score (LCA primary screening): 30 µM, average of primary screening (n = 2), vs on-plate 0.3% DMSO
T1 construct: polymerase chain reaction (PCR) amplification of the FGF14 open reading frame (nt 1–855); C-terminal fragment of Nav1.6 (amino acids 1763–1976) fused with CD4ΔC-tail (amino acids 1–395); expressed in transfected cells
T1 sequence (Q92915 1-252 isoform Q92915-2): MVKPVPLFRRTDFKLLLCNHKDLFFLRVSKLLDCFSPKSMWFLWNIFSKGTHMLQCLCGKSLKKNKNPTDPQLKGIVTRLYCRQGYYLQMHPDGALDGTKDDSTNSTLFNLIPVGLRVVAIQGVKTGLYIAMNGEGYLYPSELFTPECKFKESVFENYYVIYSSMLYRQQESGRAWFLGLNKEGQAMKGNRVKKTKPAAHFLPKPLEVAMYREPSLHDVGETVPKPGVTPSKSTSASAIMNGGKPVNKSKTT
T1 sequence (Q9UQD0 1763-1976 limits assumed): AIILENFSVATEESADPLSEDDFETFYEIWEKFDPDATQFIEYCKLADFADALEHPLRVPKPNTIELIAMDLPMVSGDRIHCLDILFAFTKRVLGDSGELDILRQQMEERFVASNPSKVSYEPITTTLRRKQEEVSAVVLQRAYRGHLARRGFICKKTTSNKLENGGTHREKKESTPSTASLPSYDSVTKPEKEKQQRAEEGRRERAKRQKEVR

[3] = CC_NCI screening, normalized to on-plate 0.3% DMSO controls
[4] = CC_NCI screening, biological replicate Set 1
[5] = CC_NCI screening, biological replicate Set 2
[6] = CC_NCI screening, biological replicate Set 2, normalized to on-plate 0.3% DMSO controls (n=16 per plate)
[7] = average of Set 1 and Set 2, normalized to 0.3% DMSO controls
[8] = CC_NCI screening, biological replicate Set 1, normalized to on-plate 0.3% DMSO controls (n=16 per plate)

Chain of full-length P. pyralis luciferase (P08659 whole entry N50D/N119G/S548I/K549A/L550V, looked up): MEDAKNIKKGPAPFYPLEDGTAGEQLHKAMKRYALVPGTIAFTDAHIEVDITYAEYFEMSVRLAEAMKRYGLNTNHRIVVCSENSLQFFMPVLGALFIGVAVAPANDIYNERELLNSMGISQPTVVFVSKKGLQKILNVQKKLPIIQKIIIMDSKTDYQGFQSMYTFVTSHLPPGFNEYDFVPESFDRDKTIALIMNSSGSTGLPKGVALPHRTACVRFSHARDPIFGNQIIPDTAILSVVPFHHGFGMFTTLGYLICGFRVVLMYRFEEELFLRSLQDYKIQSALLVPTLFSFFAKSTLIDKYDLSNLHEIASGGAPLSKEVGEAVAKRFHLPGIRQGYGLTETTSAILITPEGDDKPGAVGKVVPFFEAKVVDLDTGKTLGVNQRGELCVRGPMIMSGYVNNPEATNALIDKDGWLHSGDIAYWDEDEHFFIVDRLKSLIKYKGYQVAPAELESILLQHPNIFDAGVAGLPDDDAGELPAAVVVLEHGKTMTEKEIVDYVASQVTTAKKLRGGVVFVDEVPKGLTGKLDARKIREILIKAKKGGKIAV

| SMILES | viability at 16 h, 30 µM (in vitro) [%] | Luciferase Assay % Lum (full-length luciferase counter-screen) [1, 3] [%] | Luciferase Assay Z-score (full-length luciferase counter-screen) [1, 3] | Toxicity Assay Z-score (CTB cell viability) (Clone V cells; 16 h, 30 µM) | Split Luciferase Assay Z-score Set 1 [2, 4] | Split Luciferase Assay Z-score Set 2 [2, 5] | Split Luciferase Assay %Lum Set 2 [2, 6] [%] | Split Luciferase Assay %Lum Avg [2, 7] [%] | Split Luciferase Assay % Lum Set 1 [2, 8] [%] | viability at 16 h, 30 µM (in vitro; Clone V cells) [%] | other results |
| --- | --- | --- | --- | --- | --- | --- | --- | --- | --- | --- | --- |
| CS(=O)(=O)c1ccc(C(=O)Nc2ccc(Cl)c(-c3ccccn3)c2)c(Cl)c1 [GDC-0449] | 107 | 95.45 | -0.58 | 0.95 | 3.10 | 2.02 | 124.84 | 131.61 | – | – | – |
| CN(C)C[C@@H]1CCn2cc(c3ccccc32)C2=C(C(=O)NC2=O)c2cn(c3ccccc23)CCO1 [LY 333531, reference compound] | 101 | 78.46 | -2.76 | 0.14 | -4.72 | -5.94 | 27.05 | 34.34 | 41.64 | – | Z-score (LCA primary screening) ([2]; 384-well): −5.33; IMin (% Luminescence) ([2]; antagonists, Clone V cells, 384-well, normalized to DMSO): 34.34 % Luminescence; IC50 ([2]; estimated, 8-point dose response 0.25-30 µM, n = 4 per concentration, library compounds, read-out: IC50): 12.2 µM |
| COc1cc(O)c2c(c1)[C@H]1O[C@@H]1C[C@H](O)[C@H](O)C(=O)/C=C\C[C@H](C)OC2=O [HYPOTHEMYCIN] | – | 72.32 | -3.54 | – | -3.75 | -4.16 | 48.89 | 51.24 | 53.59 | – | viability (in vitro): 103%; Toxicity Assay Z-score (CTB cell viability) (Clone V cells): 0.42 |
| O=NN(CCCl)C(=O)NC1CCCCC1 [Lomustine] | – | 109.33 | 1.20 | – | 0.12 | 2.53 | – | – | – | – | viability (in vitro): 103%; Toxicity Assay Z-score (CTB cell viability) (Clone V cells): 0.41; Split Luciferase Assay % Lum Set 1 [2]: 101.43%; Split Luciferase Assay %Lum Avg [2]: 116.25%; Split Luciferase Assay %Lum Set 2 [2]: 131.08% |
| CC(=O)O[C@]1(C(C)=O)CC[C@H]2[C@@H]3C=C(C)C4=CC(=O)CC[C@]4(C)[C@H]3CC[C@@]21C [Megestrol acetate] | 106 | – | – | 0.79 | 4.24 | 2.87 | 135.24 | 143.88 | 152.52 | – | Luciferase Assay % Lum (full-length luciferase counter-screen) [1]: 99.64%; Luciferase Assay Z-score (full-length luciferase counter-screen) [1]: -0.05 |
| S=P(N1CC1)(N1CC1)N1CC1 [Thiotepa] | – | 95.81 | -0.54 | 1.01 | 0.38 | 2.11 | – | – | – | 107 | Split Luciferase Assay % Lum Set 1 [2]: 104.69%; Split Luciferase Assay %Lum Avg [2]: 115.28%; Split Luciferase Assay %Lum Set 2 [2]: 125.88% |
| O=c1cc(N2CCOCC2)oc2c(-c3ccccc3)cccc12 [LY 294002] | 99 | 80.46 | -2.50 | -0.14 | -0.94 | -1.87 | 76.98 | 82.68 | 88.38 | – | – |
| Cc1[nH]c2ccccc2c1CCNCc1ccc(/C=C/C(=O)NO)cc1 [LBH-589] | – | 101.54 | 0.20 | 0.78 | -1.99 | -0.18 | 97.79 | 86.56 | 75.34 | 106 | – |
| Nc1ncn([C@H]2C[C@H](O)[C@@H](CO)O2)c(=O)n1 [Decitabine, reference compound] | – | 110.67 | 1.37 | 0.87 | 6.88 | 7.95 | 197.66 | 191.40 | 185.13 | 106 | EC50 [2]: 28.8 µM; Z-score (LCA primary screening) ([2]; 384-well): 7.41; EMax (% Luminescence) ([2]; agonists, Clone V cells, 384-well, normalized to DMSO): 191.40 % Luminescence |
| CC(C)C[C@H](NC(=O)[C@H](CCc1ccccc1)NC(=O)CN1CCOCC1)C(=O)N[C@@H](Cc1ccccc1)C(=O)N[C@@H](CC(C)C)C(=O)[C@@]1(C)CO1 [Carfilzomib] | – | 97.18 | -0.36 | – | -0.68 | -1.62 | 80.10 | 85.87 | 91.64 | – | viability (in vitro): 108%; Toxicity Assay Z-score (CTB cell viability) (Clone V cells): 1.05 |
| Sc1ncnc2nc[nH]c12 [Mercaptopurine] | 106 | 102.01 | 0.26 | 0.87 | 1.52 | 1.01 | 112.35 | 115.59 | 118.82 | – | – |
| COc1cc([C@@H]2c3cc4c(cc3[C@@H](O[C@@H]3O[C@@H]5CO[C@@H](c6cccs6)O[C@H]5[C@H](O)[C@H]3O)[C@H]3COC(=O)[C@H]23)OCO4)cc(OC)c1O [Teniposide] | – | 92.82 | -0.92 | 0.66 | 1.61 | 2.11 | 125.88 | 122.89 | 119.91 | 105 | – |
| Oc1cccc(-c2nc(N3CCOCC3)c3oc4ncccc4c3n2)c1 [PI-103] | – | – | 0.79 | 2.64 | 0.91 | -0.43 | 94.67 | 102.94 | 111.21 | 119 | – |
| NC(=O)c1ccc(N(C(N)=O)c2c(F)cccc2F)nc1-c1ccc(F)cc1F [VX-702] | 105 | 93.91 | -0.78 | 0.75 | 1.35 | -2.63 | 67.62 | 92.13 | 116.65 | – | – |
